Measurements: US10544130B2, “Metallo-beta-lactamase inhibitors” (priority 2015, dated 2020)

System: Pseudomonas aeruginosa PAO1 MB9798 (efflux+, IMP-1)
Conditions: ratio MITC95 PA 9798/MITC95 PA 9799; imipenem at 2 μg/mL
Text: The strain background was Pseudomonas aeruginosa PAO1.
The strain set was then used as a pair to determine the effect of metallo-β-lactamase inhibitors of Formula I on the MIC of imipenem and/or ceftazidime. A fixed concentration of antibiotic was included in standard microbroth MIC tests, usually at the CLSI (Clinical and Laboratory Standards Institute) breakpoint concentration. A fixed amount of a class A/C beta-lactamase inhibitor was also included to inhibit the resident Pseudomonas AmpC enzyme. A serial titration of the metallo-β-lactamase inhibitor was included and the concentration of metallo-β-lactamase inhibitor which restores susceptibility of the strain to the included antibiotic was recorded. That concentration of metallo-β-lactamase inhibitor was then compared between the two strains to determine the fold difference between the efflux + (MB9798) and efflux − (MB9799) strains. This was taken as an indication of the extent to which the MBLi is subject to efflux.

Structure (SMILES) | Efflux ratio
CN1CC2(CCN(S(=O)(=O)c3ccc(-c4cccc5sc(N)nc45)c(-c4nnn[nH]4)c3S(N)(=O)=O)C2)C1 [Example 38, 3-(2-amino-1,3-benzothiazol-4-yl)-6-[(2-methyl-2,6-diazaspiro[3.4]oct-6-yl)sulfonyl]-2-(1H-tetrazol-5-yl)benzenesulfonamide] | 1.00
Cn1c(N)nc2c(-c3ccc(S(=O)(=O)N[C@H]4CCNC4)c(S(N)(=O)=O)c3-c3nn[nH]n3)cccc21 [Example 163, 4-(2-amino-1-methyl-1H-benzo[d]imidazol-4-yl)-N^1-((S)-pyrrolidin-3-yl)-3-(2H-tetrazol-5-yl)benzene-1,2-disulfonamide] | 1.00
Nc1nc2c(-c3ccc(S(=O)(=O)N4CC5CC4CS5(=O)=O)c(S(N)(=O)=O)c3-c3nnn[nH]3)cccc2s1 (stereo not shown) [Example 40, 3-(2-amino-1,3-benzothiazol-4-yl)-6-[(2,2-dioxido-2-thia-5-azabicyclo[2.2.1]hept-5-yl)sulfonyl]-2-(1H-tetrazol-5-yl)benzenesulfonamide] | 16.00
NCCCNS(=O)(=O)c1ccc(-c2cccc3sc(N)nc23)c(-c2nnn[nH]2)c1S(N)(=O)=O.O=C(O)C(F)(F)F [Example 90, 3-(4-(2-aminobenzo[d]thiazol-4-yl)-2-sulfamoyl-3-(1H-tetrazol-5-yl)phenylsulfonamido) propan-1-aminium 2,2,2-trifluoroacetate] | 0.50
CN1CCOC(CNS(=O)(=O)c2ccc(-c3cccc4sc(N)nc34)c(-c3nnn[nH]3)c2S(N)(=O)=O)C1 (stereo not shown) [Example 17, 4-(2-amino-1,3-benzothiazol-4-yl)-N1-[(4-methylmorpholin-2-yl)methyl]-3-(1H-tetrazol-5-yl)benzene-1,2-disulfonamide] | 2.00
Cn1c(N)nc2c(-c3ccc(S(=O)(=O)N[C@@H]4CCNC4)c(S(N)(=O)=O)c3-c3nn[nH]n3)cccc21 [Example 164, 4-(2-amino-1-methyl-1H-benzo[d]imidazol-4-yl)-N^1-((R)-pyrrolidin-3-yl)-3-(2H-tetrazol-5-yl)benzene-1,2-disulfonamide] | 1.00
Nc1nc2c(-c3ccc(S(=O)(=O)N[C@@H]4CCNC4)c(S(N)(=O)=O)c3-c3nn[nH]n3)cc(I)cc2[nH]1 [Example 234, (R)-4-(2-amino-6-iodo-1H-benzo[d]imidazol-4-yl)-N^1-(pyrrolidin-3-yl)-3-(2H-tetrazol-5-yl)benzene-1,2-disulfonamide] | 1.00
Nc1nc2c(-c3ccc(S(=O)(=O)NC[C@@H](N)C(=O)O)c(S(N)(=O)=O)c3-c3nn[nH]n3)cccc2s1 [Example 154, (R)-2-amino-3-((4-(2-aminobenzo[d]thiazol-4-yl)-2-sulfamoyl-3-(2H-tetrazol-5-yl)phenyl)sulfonamido) propanoic acid] | 0.50
Nc1nc2c(-c3ccc(S(=O)(=O)NC4(CO)CCNC4)c(S(N)(=O)=O)c3-c3nnn[nH]3)cccc2s1 (stereo not shown) [Example 84, 4-(2-amino-1,3-benzothiazol-4-yl)-N1-[3-(hydroxymethyl)pyrrolidin-3-yl]-3-(1H-tetrazol-5-yl)benzene-1,2-disulfonamide] | 1.00
Nc1nc2c(-c3ccc(S(=O)(=O)N4CC(N)C4)c(S(N)(=O)=O)c3-c3nn[nH]n3)cccc2s1 [Example 147, 6-((3-aminoazetidin-1-yl)sulfonyl)-3-(2-aminobenzo[d]thiazol-4-yl)-2-(2H-tetrazol-5-yl)benzenesulfonamide] | 1.00
NC[C@H](CO)NS(=O)(=O)c1ccc(-c2cccnc2N)c(-c2nn[nH]n2)c1S(N)(=O)=O [Example 215, (R)-N1-(1-amino-3-hydroxypropan-2-yl)-4-(2-aminopyridin-3-yl)-3-(2H-tetrazol-5-yl)benzene-1,2-disulfonamide] | 1.00
Nc1nc2c(-c3ccc(S(=O)(=O)NCCC(N)C(F)(F)F)c(S(N)(=O)=O)c3-c3nnn[nH]3)cccc2s1 (stereo not shown) [Example 49, 4-(2-amino-1,3-benzothiazol-4-yl)-N1-(3-amino-4,4,4-trifluorobutyl)-3-(1H-tetrazol-5-yl)benzene-1,2-disulfonamide] | 8.00
Cl.Cn1c(N)nc2c(-c3ccc(S(=O)(=O)NCCN)c(S(N)(=O)=O)c3-c3nn[nH]n3)cccc21 [Example 10, 4-(2-amino-1-methyl-1H-benzo[d]imidazol-4-yl)-N1-(2-aminoethyl)-3-(2H-tetrazol-5-yl)benzene-1,2-disulfonamide hydrochloride] | 1.00
Nc1nc2c(-c3ccc(S(=O)(=O)N[C@@H]4CCCNC4)c(S(N)(=O)=O)c3-c3nnn[nH]3)cccc2s1 [Example 69, 4-(2-amino-1,3-benzothiazol-4-yl)-N1-[(3R)-piperidin-3-yl]-3-(1H-tetrazol-5-yl)benzene-1,2-disulfonamide] | 0.50
Nc1nc2c(-c3ccc(S(=O)(=O)NCC4(O)CCNCC4)c(S(N)(=O)=O)c3-c3nnn[nH]3)cccc2s1 [Example 86, 4-(2-aminobenzo[d]thiazol-4-yl)-N^1-((4-hydroxypiperidin-4-yl)methyl)-3-(1H-tetrazol-5-yl)benzene-1,2-disulfonamide] | 0.50
CN(C1CNC1)S(=O)(=O)c1ccc(-c2cccc3sc(N)nc23)c(-c2nnn[nH]2)c1S(N)(=O)=O.O=C(O)C(F)(F)F [Example 105, 3-(4-(2-aminobenzo[d]thiazol-4-yl)-N-methyl-2-sulfamoyl-3-(1H-tetrazol-5-yl)phenylsulfonamido) azetidin-1-ium 2,2,2-trifluoroacetate] | 1.00
Nc1nc2c(-c3ccc(S(=O)(=O)NCCC(N)CF)c(S(N)(=O)=O)c3-c3nnn[nH]3)cccc2s1.O=CO (stereo not drawn) [Example 123, 4-(4-(2-aminobenzo[d]thiazol-4-yl)-2-sulfamoyl-3-(1H-tetrazol-5-yl)phenylsulfonamido)-l-fluorobutan-2-aminium formate] | 1.00
Nc1nc2c(-c3ccc(S(=O)(=O)N4CC5(CCNC5)C4)c(S(N)(=O)=O)c3-c3nnn[nH]3)cccc2s1 [Example 48, 3-(2-amino-1,3-benzothiazol-4-yl)-6-(2,6-diazaspiro[3.4]oct-2-ylsulfonyl)-2-(1H-tetrazol-5-yl)benzenesulfonamide] | 1.00
Nc1nc2c(-c3ccc(S(=O)(=O)N[C@H]4CCNC4)c(S(N)(=O)=O)c3-c3nn[nH]n3)cccc2[nH]1 [Example 162, 4-(2-amino-1H-benzo[d]imidazol-4-yl)-N^1-((S)-pyrrolidin-3-yl)-3-(2H-tetrazol-5-yl)benzene-1,2-disulfonamide] | 0.87
Nc1nc2c(-c3ccc(S(=O)(=O)N[C@H]4CN[C@@H](CO)C4)c(S(N)(=O)=O)c3-c3nnn[nH]3)cccc2[nH]1 [Example 173, 4-(2-amino-1H-benzo[d]imidazol-4-yl)-N^1-((3R,5R)-5-(hydroxymethyl)pyrrolidin-3-yl)-3-(1H-tetrazol-5-yl)benzene-1,2-disulfonamide] | 1.00
CC1(CN)CN(S(=O)(=O)c2ccc(-c3cccc4sc(N)nc34)c(-c3nnn[nH]3)c2S(N)(=O)=O)C1.O=C(O)C(F)(F)F [Example 101, (1-((4-(2-aminobenzo[d]thiazol-4-yl)-2-sulfamoyl-3-(1H-tetrazol-5-yl)phenyl)sulfonyl)-3-methylazetidin-3-yl)methanaminium 2,2,2-trifluoroacetate] | 1.00
NCCNS(=O)(=O)c1ccc(-c2cccc3oc(C(=O)O)nc23)c(-c2nn[nH]n2)c1S(N)(=O)=O [Example 13, 4-(4-(N-(2-aminoethyl)sulfamoyl)-3-sulfamoyl-2-(2H-tetrazol-5-yl)phenyl)benzo oxazole-2-carboxylic acid] | 2.00
Cn1c(N)nc2c(-c3ccc(S(=O)(=O)N[C@H]4CC[N+](C)(C)C4)c(S(N)(=O)=O)c3-c3nn[n-]n3)cccc21 [Example 167, (S)-5-(6-(2-amino-1-methyl-1H-benzo[d]imidazol-4-yl)-3-(N-(1,1-dimethylpyrrolidin-1-ium-3-yl)sulfamoyl)-2-sulfamoylphenyl)tetrazol-2-ide] | 2.00
Nc1nc2c(-c3ccc(S(=O)(=O)N4CCC[C@H](N)C4)c(S(N)(=O)=O)c3-c3nnn[nH]3)cccc2s1 [Example 66, 3-(2-amino-1,3-benzothiazol-4-yl)-6-{[(3S)-3-aminopiperidin-1-yl]sulfonyl}-2-(1H-tetrazol-5-yl)benzenesulfonamide] | 2.00
NC(=O)[C@@H](N)CNS(=O)(=O)c1ccc(-c2cccc3[nH]c(N)nc23)c(-c2nn[nH]n2)c1S(N)(=O)=O [Example 189, (2S)-2-amino-3-(4-(2-amino-1H-benzo[d]imidazol-4-yl)-2-sulfamoyl-3-(2H-tetrazol-5-yl)phenylsulfonamido)propanamide] | 0.50
Nc1nc2c(-c3ccc(S(=O)(=O)N[C@H]4CNC[C@@H]4F)c(S(N)(=O)=O)c3-c3nnn[nH]3)cccc2s1 [Example 59, 4-(2-amino-1,3-benzothiazol-4-yl)-N1-[(3S,4S)-4-fluoropyrrolidin-3-yl]-3-(1H-tetrazol-5-yl)benzene-1,2-disulfonamide] | 1.00
CN(C)CCNS(=O)(=O)c1ccc(-c2cccc3sc(N)nc23)c(-c2nnn[nH]2)c1S(N)(=O)=O [Example 22, 4-(2-amino-1,3-benzothiazol-4-yl)-N^1-[2-(dimethylamino)ethyl]-3-(1H-tetrazol-5-yl)benzene-1,2-disulfonamide] | 1.00
Nc1nc2c(-c3ccc(S(=O)(=O)NC4CNC4)c(S(N)(=O)=O)c3-c3nn[nH]n3)cccc2[nH]1 [Example 252, 4-(2-amino-1H-benzo[d]imidazol-4-yl)-N1-(azetidin-3-yl)-3-(2H-tetrazol-5-yl)benzene-1,2-disulfonamide] | 0.68
